The source of these data is patent publication US20260297542A1, “HERBICIDE RESISTANT PLANTS” (SYNGENTA CROP PROTECTION AG, priority 2023, published 2026).

Assay [1] concerns the target T1, AtPPO1 S305L G404A L479N (SEQ ID NO.137) (Arabidopsis thaliana, UniProt P55826, G404A/L479N/S305L).
T1 construct: made in house; host or cells: E. coli BL21 (DE3) hemG, crude extract
T1 sequence (P55826 35-537 S305L/G404A/L479N): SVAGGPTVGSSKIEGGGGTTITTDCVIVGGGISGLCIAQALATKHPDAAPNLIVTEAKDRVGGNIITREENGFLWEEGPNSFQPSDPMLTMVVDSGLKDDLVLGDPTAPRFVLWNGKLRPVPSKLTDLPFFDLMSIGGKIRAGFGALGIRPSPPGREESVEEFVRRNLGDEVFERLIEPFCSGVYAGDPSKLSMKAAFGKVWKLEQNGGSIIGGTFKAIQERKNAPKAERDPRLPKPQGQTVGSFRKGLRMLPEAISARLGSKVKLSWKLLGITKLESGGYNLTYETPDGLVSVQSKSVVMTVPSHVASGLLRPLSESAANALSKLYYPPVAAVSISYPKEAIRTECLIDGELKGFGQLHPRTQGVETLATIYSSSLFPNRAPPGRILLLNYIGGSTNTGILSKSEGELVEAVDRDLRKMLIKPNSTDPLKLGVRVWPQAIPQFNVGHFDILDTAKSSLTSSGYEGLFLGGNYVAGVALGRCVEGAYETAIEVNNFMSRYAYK
The experiment in a line: fluorescent Protoporphyrinogen Oxidase assay, crude extract. Particulars: read-out: percentage inhibition. It is filed as biochemical.

The target in assay [2] is T2, AtPPO1 S305L Y362F G404A (SEQ ID NO.129) (Arabidopsis thaliana, UniProt P55826, G404A/S305L/Y362F).
T2 construct: made in house; host or cells: E. coli BL21 (DE3) hemG, crude extract
T2 sequence (P55826 35-537 S305L/Y362F/G404A): T1 sequence (P55826 35-537 S305L/G404A/L479N) with Y328F, N445L
Described as above. It counts as biochemical. As to conditions: read-out: percentage inhibition.

Molecules are shown by their SMILES. Changes are numbered by the printed parent chain.

For `C#CCN1C(=O)C(F)(F)Oc2cc(F)c(-n3c(=O)n(C)c(=S)n(C)c3=O)cc21` [Herbicide B, trifludimoxazin], in assay [1], the inhibition (as a rule, the relative decrease from the control value, in per cent) at 0.1 ppm is 77%; the inhibition at 1 ppm worked out at 98%; the inhibition at 10 ppm was 100%; the inhibition at 100 ppm was 100%. For the same compound, in assay [2], the inhibition at 0.1 ppm amounted to 70%, the inhibition at 1 ppm was determined as 93%, the inhibition at 10 ppm was determined as 97% and the inhibition at 100 ppm stood at 100%.
As to `CCOC(=O)C1(C)CC(c2cc(-n3c(=O)cc(C(F)(F)F)n(C)c3=O)c(F)cc2Cl)=NO1` (stereo not shown) [Herbicide C, 3-(2-chloro-4-fluoro-5-(3-methyl-2,6-dioxo-4-trifluoromethyl-3,6-dihydropyrimidin-1(2H)-yl)phenyl)-5-methyl-4,5-dihydroisoxazole-5-carboxylic acid ethyl ester], in assay [1], the inhibition at 0.1 ppm amounted to 26%, the inhibition at 1 ppm was 90%, the inhibition at 10 ppm was determined as 100% and the inhibition at 100 ppm stood at 100%. Also, in assay [2], the inhibition at 0.1 ppm was 24%, the inhibition at 1 ppm was 76%, the inhibition at 10 ppm worked out at 93% and the inhibition at 100 ppm was 100%.
For the compound `CCOC(=O)COc1ncccc1Oc1cc(-n2c(=O)cc(C(F)(F)F)n(C)c2=O)c(F)cc1Cl` [Herbicide A, epyrifenacil], in assay [1], the inhibition at 0.1 ppm came out at 24%, the inhibition at 1 ppm is 93%, the inhibition at 10 ppm was 100% and the inhibition at 100 ppm is 100%. In assay [2], the inhibition at 0.1 ppm was 25%, the inhibition at 1 ppm stood at 78%, the inhibition at 10 ppm was found to be 92% and the inhibition at 100 ppm stood at 100%.
With `CCOC(=O)[C@]1(C)CC(c2cc(-n3c(=O)n(C)c(=S)n(C)c3=O)c(F)cc2Cl)=NO1` [Herbicide D, ethyl (5S)-3-[2-chloro-5-(3,5-dimethyl-2,6-dioxo-4-thioxo-1,3,5-triazinan-1-yl)-4-fluoro-phenyl]-5-methyl-4H-isoxazole-5-carboxylate], in assay [1], the inhibition at 0.1 ppm was found to be 12%, the inhibition at 1 ppm was determined as 58%, the inhibition at 10 ppm turned out to be 98% and the inhibition at 100 ppm was 100%. Also, in assay [2], the inhibition at 0.1 ppm was found to be 9%, the inhibition at 1 ppm came out at 45%, the inhibition at 10 ppm was found to be 83% and the inhibition at 100 ppm was 96%.
As to `CC(C)N(C)S(=O)(=O)NC(=O)c1cc(-n2c(=O)cc(C(F)(F)F)n(C)c2=O)c(F)cc1Cl` [Herbicide E, saflufenacil], in assay [1], the inhibition at 0.1 ppm worked out at 22%, the inhibition at 1 ppm amounted to 66%, the inhibition at 10 ppm came out at 100% and the inhibition at 100 ppm was 96%. Moreover, in assay [2], the inhibition at 0.1 ppm worked out at 15%, the inhibition at 1 ppm came out at 53%, the inhibition at 10 ppm came out at 84% and the inhibition at 100 ppm stood at 100%.
